For this assay, the system named is AMP-activated protein kinase (AMPK). Briefly: ADP Quest assay for AMPK activators. The class given is biochemical. The arrangement: key: fold AMPK activation with vs without activator at 30 µM. The note with it: fold of AMPK activation to phosphorylate SAMS peptide without and with an activator at the concentration of 30 µM. The gist of the method: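 E30, the fold increase in SAMS peptide phosphorylation at 30 µM compound relative to no activator, is derived from kinetic fluorescent detection of ADP (ex 530, em 590 nm). AMPK starts the ATP-containing reaction at room temperature; compounds span […] by 2-fold steps, AMP serves as reference.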
`CC1(C)Cc2cc(C(=O)O)ccc2NC1c1ccccc1NC(=O)C1CC1` (centres unmarked) [Example 214, 2-(2-(Cyclopropanecarboxamido)phenyl)-3,3-dimethyl-1,2,3,4-tetrahydroquinoline-6-carboxylic acid] showed an E30 of 1.41.
Molecule `CC1(C)Cc2cc(C(=O)O)ccc2NC1c1ccc(NC(=O)C2CCC2)cc1` (centres unmarked) [Example 215, 2-(4-(Cyclobutanecarboxamido)phenyl)-3,3-dimethyl-1,2,3,4-tetrahydroquinoline-6-carboxylic acid] came in with an E30 of 1.38.
`CC1(C)Cc2cc(C(=O)O)ccc2NC1c1ccccc1NC(=O)C1CCC1` (centres unmarked) [Example 216, 2-(2-(Cyclobutanecarboxamido)phenyl)-3,3-dimethyl-1,2,3,4-tetrahydroquinoline-6-carboxylic acid]: the E30 was 1.36.
Take `CC1(C)Cc2cc(C(=O)O)ccc2NC1c1ccc(NC(=O)C2=CCCCC2)cc1` (centres unmarked) [Example 217, 2-(4-(Cyclohex-1-enecarboxamido)phenyl)-3,3-dimethyl-1,2,3,4-tetrahydroquinoline-6-carboxylic acid]: the E30 came out at 1.27.
Molecule `CC1(C)Cc2cc(C(=O)O)ccc2NC1c1ccccc1NS(=O)(=O)c1ccc(F)cc1` (centres unmarked) [Example 218, 2-(2-(4-Fluorophenylsulfonamido)phenyl)-3,3-dimethyl-1,2,3,4-tetrahydroquinoline-6-carboxylic acid] yielded an E30 of 2.53.
`CC1(C)Cc2cc(C(=O)O)ccc2NC1c1ccccc1NS(=O)(=O)c1ccccc1F` (centres unmarked) [Example 219, 2-(2-(2-Fluorophenylsulfonamido)phenyl)-3,3-dimethyl-1,2,3,4-tetrahydroquinoline-6-carboxylic acid]: the E30 came to 2.57.
To `CC1(C)Cc2cc(C(=O)O)ccc2NC1c1ccccc1NS(=O)(=O)c1ccccc1` (centres unmarked) [Example 220, 3,3-Dimethyl-2-(2-(phenylsulfonamido)phenyl)-1,2,3,4-tetrahydroquinoline-6-carboxylic acid] belongs 1.89; to `CC(C)NS(=O)(=O)c1cccc(C2Nc3ccc(C(=O)O)cc3CC2(C)C)c1` (centres unmarked) [Example 221, 2-(3-(N-isopropylsulfamoyl)phenyl)-3,3-dimethyl-1,2,3,4-tetrahydroquinoline-6-carboxylic acid], 1.33.
The same measure for `CC1(C)Cc2cc(C(=O)O)ccc2NC1c1ccccc1NS(=O)(=O)c1cccc(F)c1` (centres unmarked) [Example 222, 2-(2-(3-Fluorophenylsulfonamido)phenyl)-3,3-dimethyl-1,2,3,4-tetrahydroquinoline-6-carboxylic acid]: 2.09; for `CC1(C)Cc2cc(C(=O)O)ccc2NC1c1ccccc1NS(C)(=O)=O` (centres unmarked) [Example 223, 3,3-Dimethyl-2-(2-(methylsulfonamido)phenyl)-1,2,3,4-tetrahydroquinoline-6-carboxylic acid]: 1.94; for `CN1CCC(NC(=O)c2cccc(C3Nc4c(cccc4C(=O)O)CC3(C)C)c2)C1` (centres unmarked) [Example 224, 3,3-Dimethyl-2-(3-(1-methylpyrrolidin-3-ylcarbamoyl)phenyl)-1,2,3,4-tetrahydroquinoline-8-carboxylic acid]: 1.43.
`CN1CCC(NC(=O)c2cccc(C3Nc4ccc(Cl)cc4CC3(C)C)c2)C1` (centres unmarked) [Example 225, 3-(6-Chloro-3,3-dimethyl-1,2,3,4-tetrahydroquinolin-2-yl)-N-(1-methylpyrrolidin-3-yl)benzamide]: the E30 was found to be 1.64.
Consider `CNS(=O)(=O)c1ccc(C2Nc3ccc(C(=O)O)cc3CC2(C)C)cc1` (centres unmarked) [Example 226, 3,3-Dimethyl-2-(4-(N-methylsulfamoyl)phenyl)-1,2,3,4-tetrahydroquinoline-6-carboxylic acid], for which the E30 was found to be 1.32.
Take `CC1(C)Cc2cc(C(=O)O)ccc2NC1c1cccc(S(=O)(=O)N2CCCC2)c1` (centres unmarked) [Example 227, 3,3-Dimethyl-2-(3-(pyrrolidin-1-ylsulfonyl)phenyl)-1,2,3,4-tetrahydroquinoline-6-carboxylic acid]: the E30 was 1.2.
As for `CNS(=O)(=O)c1cccc(C2Nc3ccc(C(=O)O)cc3CC2(C)C)c1` (centres unmarked) [Example 228, 3,3-Dimethyl-2-(3-(N-methylsulfamoyl)phenyl)-1,2,3,4-tetrahydroquinoline-6-carboxylic acid], the E30 turned out to be 1.38.
As for `CN1CCC(NS(=O)(=O)c2cccc(C3Nc4ccc(C(=O)O)cc4CC3(C)C)c2)C1` (centres unmarked) [Example 229, 3,3-Dimethyl-2-(3-(N-(1-methylpyrrolidin-3-yl)sulfamoyl)phenyl)-1,2,3,4-tetrahydroquinoline-6-carboxylic acid], the E30 came out at 1.33.
As to `CC1(C)Cc2cc(C(=O)O)ccc2NC1c1cccc(S(=O)(=O)Nc2ccccc2)c1` (centres unmarked) [Example 230, 3,3-Dimethyl-2-(3-(N-phenylsulfamoyl)phenyl)-1,2,3,4-tetrahydroquinoline-6-carboxylic acid], the E30 came out at 1.27.
Consider `CN(C)S(=O)(=O)c1cccc(C2Nc3ccc(C(=O)O)cc3CC2(C)C)c1` (centres unmarked) [Example 231, 2-(3-(N,N-dimethylsulfamoyl)phenyl)-3,3-dimethyl-1,2,3,4-tetrahydroquinoline-6-carboxylic acid], for which the E30 is listed as 1.31.
Turning to `CC1(C)Cc2cc(C(=O)O)ccc2NC1c1ccccc1NC(=O)c1ccccn1` (centres unmarked) [Example 232, 3,3-Dimethyl-2-(2-(picolinamido)phenyl)-1,2,3,4-tetrahydroquinoline-6-carboxylic acid], the E30 was 1.28.
In turn, `CC(C)(Oc1cccc(C2Nc3ccc(C(=O)O)cc3CC2(C)C)c1)C(=O)O` (centres unmarked) [Example 233, 2-(3-(2-Carboxypropan-2-yloxy)phenyl)-3,3-dimethyl-1,2,3,4-tetrahydroquinoline-6-carboxylic acid] showed an E30 of 1.29.
